Data: patent US11618880B2, “Compositions comprising bacterial strains and use thereof in controlling pathogenic microorganisms” (Better Air International Limited, priority 2018, dated 2023)

How the values were obtained:
Experiment in all cases: Agar well diffusion assay, antagonism of molds
Assay type in all cases: cell-based
Details in all cases: PDA plates, 25° C. 72 hours
[1] = test system: Alternaria alternata (Fries) Keissler (ATCC MYA-4642)
Protocol: (§1) The agar well diffusion assay was performed to evaluate the antagonistic activity of B. amyloliquefaciens 298 against the growth of pathogenic bacteria including Escherichia coli ATCC 22922, Pseudomonas aeruginosa, B. cereus ATCC 27348, Staphylococcus aureus ATCC 11335, Salmonella Typhimurium ATCC 14028 and Listeria innocua ATCC 3586. […] Brain Heart Infusion (BHI) Agar was used for the antagonism against pathogenic microorganisms while the Potato Dextrose Agar (PDA) was used for evaluation against molds. Reference pathogens were prepared using BHI broth at 37° C. for 18 hours while B. amyloliquefaciens 298 was grown using LB broth at 37° C. for 18 hours. Molds were prepared using PDA at 25° C. with 85% HR for 7 days. Mold spores, pathogens and B. amyloliquefaciens 298 were harvested and resuspended in PBS. Pathogens and B. amyloliquefaciens 298 were adjusted to an optical density of 0.2 and 100 uL of pathogen suspended in PBS was spread on BHI agar plates. The same amount of mold spore suspension was inoculated on PDA. Wells were made in all the plates and 20 μL of B. amyloliquefaciens 298 suspensions were inoculated in the wells while the BHI plates were incubated at 37° C. for 24 hours and PDA plates at 25° C. for 72 hours.

[2] = test system: Cladosporium sphaerospermum Penzig (ATCC MYA-4645)
Protocol: as §1

[3] = test system: Penicillium chrysogenum Thom (ATCC MYA-4644)
Protocol: as §1

OO [Hydrogen peroxide 10%, hydrogen peroxide]
Inhibition zone, Alternaria alternata (Fries) Keissler (ATCC MYA-4642) [1]: 8 mm
Inhibition zone, Cladosporium sphaerospermum Penzig (ATCC MYA-4645) [2]: 12 mm
Inhibition zone, Penicillium chrysogenum Thom (ATCC MYA-4644) [3]: 10 mm
